Patent US10681909B2, “Herbicidal triazoles” (FMC Corporation, priority 2014, dated 2020)

Assays:
foxtail, giant [1] = assay: Test A preemergence; type: in vivo, Setaria faberii; conditions: 0 to 100 scale (0 no effect, 100 complete control)
How it was run: (§1)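 Pre- and postemergence spray tests in a loam soil–sand mixture: seeded soil received a directed spray, while established seedlings 2–10 cm high at the one- to two-leaf stage were treated over the top. Compounds were carried in non-phytotoxic solvent with surfactant.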

barnyardgrass [2] = assay: Test A postemergence; type: in vivo, Echinochloa crus-galli; conditions: 0 to 100 scale (0 no effect, 100 complete control), approx. 10 d
How it was run: as §1

pigweed [3] = assay: Test A postemergence; type: in vivo, Amaranthus retroflexus; conditions: 0 to 100 scale (0 no effect, 100 complete control), approx. 10 d
How it was run: as §1

corn = assay: Test A postemergence; type: in vivo, Zea mays; conditions: 0 to 100 scale (0 no effect, 100 complete control), approx. 10 d
How it was run: as §1

rice = assay: Test B flooded paddy test; type: in vivo, Oryza sativa; conditions: 250 g ai/ha, applied to paddy water at 2-leaf stage, visual rating after 13 to 15 d, scale 0 (no effect) to 100 (complete control)
How it was run: (§2)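 Pots were flooded to 3 cm above the soil at treatment, and compounds were applied directly into the paddy water. That depth was held throughout. After 13 to 15 d in a greenhouse, plants were rated visually against untreated controls.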

barnyardgrass [4] = assay: Test B flooded paddy test; type: in vivo, Echinochloa crus-galli; conditions: 250 g ai/ha, applied to paddy water at 2-leaf stage, visual rating after 13 to 15 d, scale 0 (no effect) to 100 (complete control)
How it was run: as §2

wheat (winter wheat) = assay: Test C postemergence; type: in vivo, Triticum aestivum
How it was run: (§3)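 Preemergence: seeds sown in loam soil–sand blend and treated with test chemicals formulated in a non-phytotoxic solvent mixture containing a surfactant. Postemergence: plants grown in peat moss/vermiculite-based medium and sprayed with the same formulation at 2 to 18 cm height (1- to 4-leaf stage).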

crabgrass, large = assay: Test C postemergence; type: in vivo, Digitaria sanguinalis
How it was run: as §3

foxtail, giant [5] = assay: Test C postemergence; type: in vivo, Setaria faberii
How it was run: as §3

johnsongrass = assay: Test C postemergence; type: in vivo, Sorghum halepense
How it was run: as §3

lambsquarters = assay: Test C postemergence; type: in vivo, Chenopodium album
How it was run: as §3

morningglory = assay: Test C postemergence; type: in vivo, Ipomoea coccinea
How it was run: as §3

nutsedge, yellow = assay: Test C postemergence; type: in vivo, Cyperus esculentus
How it was run: as §3

pigweed [6] = assay: Test C postemergence; type: in vivo, Amaranthus retroflexus
How it was run: as §3

ragweed = assay: Test C postemergence; type: in vivo, Ambrosia elatior
How it was run: as §3

oilseed rape = assay: Test C postemergence; type: in vivo, Brassica napus
How it was run: as §3

velvetleaf = assay: Test C postemergence; type: in vivo, Abutilon theophrasti
How it was run: as §3

chickweed = assay: Test C postemergence; type: in vivo, Stellaria media
How it was run: as §3

oat, wild = assay: Test C postemergence; type: in vivo, Avena fatua
How it was run: as §3

kochia = assay: Test C postemergence; type: in vivo, Kochia scoparia
How it was run: as §3

COc1nc(-c2ccccc2)nn1Cc1ccnc(C(F)(F)F)c1 [Compound 32]
Plant response rating, Foxtail, Giant (foxtail, giant [1]; 125 g ai/ha): 90 | Plant response rating, Foxtail, Giant (foxtail, giant [1]; 500 g ai/ha, approx. 10 d): 100 | Plant response rating, Barnyardgrass (barnyardgrass [2]; 125 g ai/ha): 30 | Plant response rating, Barnyardgrass (barnyardgrass [2]; 500 g ai/ha): 60 | Plant response rating, Pigweed (pigweed [3]; 125 g ai/ha): 90 | Plant response rating, Pigweed (pigweed [3]; 500 g ai/ha): 100 | Plant response rating, Corn (corn; 125 g ai/ha): 10 | Plant response rating, Corn (corn; 500 g ai/ha): 30 | Plant response rating, Rice, Flood (rice): 0 | Plant response rating, Barnyardgrass, Flood (barnyardgrass [4]): 0 | Plant response rating (scale of 0 to 100 where 0 is no effect and 100 is complete control) (wheat (winter wheat); 31 g ai/ha): 0 | Plant response rating (scale of 0 to 100 where 0 is no effect and 100 is complete control) (wheat (winter wheat); 62 g ai/ha): 0 | Plant response rating (scale of 0 to 100 where 0 is no effect and 100 is complete control) (wheat (winter wheat); 125 g ai/ha): 0 | Plant response rating (scale of 0 to 100 where 0 is no effect and 100 is complete control) (wheat (winter wheat); 250 g ai/ha): 0 | Plant response rating (scale of 0 to 100 where 0 is no effect and 100 is complete control) (crabgrass, large; 31 g ai/ha): 5 | Plant response rating (scale of 0 to 100 where 0 is no effect and 100 is complete control) (crabgrass, large; 62 g ai/ha): 10 | Plant response rating (scale of 0 to 100 where 0 is no effect and 100 is complete control) (crabgrass, large; 125 g ai/ha): 25 | Plant response rating (scale of 0 to 100 where 0 is no effect and 100 is complete control) (crabgrass, large; 250 g ai/ha): 25 | Plant response rating (scale of 0 to 100 where 0 is no effect and 100 is complete control) (foxtail, giant [5]; 31 g ai/ha): 10 | Plant response rating (scale of 0 to 100 where 0 is no effect and 100 is complete control) (foxtail, giant [5]; 62 g ai/ha): 10 | Plant response rating (scale of 0 to 100 where 0 is no effect and 100 is complete control) (foxtail, giant [5]; 125 g ai/ha): 10 | Plant response rating (scale of 0 to 100 where 0 is no effect and 100 is complete control) (foxtail, giant [5]; 250 g ai/ha): 10 | Plant response rating (scale of 0 to 100 where 0 is no effect and 100 is complete control) (johnsongrass; 31 g ai/ha): 10 | Plant response rating (scale of 0 to 100 where 0 is no effect and 100 is complete control) (johnsongrass; 62 g ai/ha): 10 | Plant response rating (scale of 0 to 100 where 0 is no effect and 100 is complete control) (johnsongrass; 125 g ai/ha): 10 | Plant response rating (scale of 0 to 100 where 0 is no effect and 100 is complete control) (johnsongrass; 250 g ai/ha): 10 | Plant response rating (scale of 0 to 100 where 0 is no effect and 100 is complete control) (lambsquarters; 31 g ai/ha): 100 | Plant response rating (scale of 0 to 100 where 0 is no effect and 100 is complete control) (lambsquarters; 62 g ai/ha): 95 | Plant response rating (scale of 0 to 100 where 0 is no effect and 100 is complete control) (lambsquarters; 125 g ai/ha): 100 | Plant response rating (scale of 0 to 100 where 0 is no effect and 100 is complete control) (lambsquarters; 250 g ai/ha): 98 | Plant response rating (scale of 0 to 100 where 0 is no effect and 100 is complete control) (morningglory; 31 g ai/ha): 80 | Plant response rating (scale of 0 to 100 where 0 is no effect and 100 is complete control) (morningglory; 62 g ai/ha): 40 | Plant response rating (scale of 0 to 100 where 0 is no effect and 100 is complete control) (morningglory; 125 g ai/ha): 80 | Plant response rating (scale of 0 to 100 where 0 is no effect and 100 is complete control) (morningglory; 250 g ai/ha): 65 | Plant response rating (scale of 0 to 100 where 0 is no effect and 100 is complete control) (nutsedge, yellow; 31 g ai/ha): 10 | Plant response rating (scale of 0 to 100 where 0 is no effect and 100 is complete control) (nutsedge, yellow; 62 g ai/ha): 20 | Plant response rating (scale of 0 to 100 where 0 is no effect and 100 is complete control) (nutsedge, yellow; 125 g ai/ha): 10 | Plant response rating (scale of 0 to 100 where 0 is no effect and 100 is complete control) (nutsedge, yellow; 250 g ai/ha): 25 | Plant response rating (scale of 0 to 100 where 0 is no effect and 100 is complete control) (pigweed [6]; 31 g ai/ha): 98 | Plant response rating (scale of 0 to 100 where 0 is no effect and 100 is complete control) (pigweed [6]; 62 g ai/ha): 95 | Plant response rating (scale of 0 to 100 where 0 is no effect and 100 is complete control) (pigweed [6]; 125 g ai/ha): 98 | Plant response rating (scale of 0 to 100 where 0 is no effect and 100 is complete control) (pigweed [6]; 250 g ai/ha): 98 | Plant response rating (scale of 0 to 100 where 0 is no effect and 100 is complete control) (ragweed; 31 g ai/ha): 35 | Plant response rating (scale of 0 to 100 where 0 is no effect and 100 is complete control) (ragweed; 62 g ai/ha): 70 | Plant response rating (scale of 0 to 100 where 0 is no effect and 100 is complete control) (ragweed; 125 g ai/ha): 60 | Plant response rating (scale of 0 to 100 where 0 is no effect and 100 is complete control) (ragweed; 250 g ai/ha): 60 | Plant response rating (scale of 0 to 100 where 0 is no effect and 100 is complete control) (oilseed rape; Oilsee Rape, 250 g ai/ha): 45 | Plant response rating (scale of 0 to 100 where 0 is no effect and 100 is complete control) (oilseed rape; Oilseed Rape, 31 g ai/ha): 20 | Plant response rating (scale of 0 to 100 where 0 is no effect and 100 is complete control) (oilseed rape; Oilseed Rape, 62 g ai/ha): 5 | Plant response rating (scale of 0 to 100 where 0 is no effect and 100 is complete control) (oilseed rape; Oilseed Rape, 125 g ai/ha): 10 | Plant response rating (scale of 0 to 100 where 0 is no effect and 100 is complete control) (velvetleaf; 31 g ai/ha): 15 | Plant response rating (scale of 0 to 100 where 0 is no effect and 100 is complete control) (velvetleaf; 62 g ai/ha): 10 | Plant response rating (scale of 0 to 100 where 0 is no effect and 100 is complete control) (velvetleaf; 125 g ai/ha): 20 | Plant response rating (scale of 0 to 100 where 0 is no effect and 100 is complete control) (velvetleaf; 250 g ai/ha): 20 | Plant response rating (scale of 0 to 100 where 0 is no effect and 100 is complete control) (chickweed; 31 g ai/ha): 10 | Plant response rating (scale of 0 to 100 where 0 is no effect and 100 is complete control) (chickweed; 62 g ai/ha): 10 | Plant response rating (scale of 0 to 100 where 0 is no effect and 100 is complete control) (chickweed; 125 g ai/ha): 55 | Plant response rating (scale of 0 to 100 where 0 is no effect and 100 is complete control) (chickweed; 250 g ai/ha): 50 | Plant response rating (scale of 0 to 100 where 0 is no effect and 100 is complete control) (oat, wild; 31 g ai/ha): 0 | Plant response rating (scale of 0 to 100 where 0 is no effect and 100 is complete control) (oat, wild; 62 g ai/ha): 5 | Plant response rating (scale of 0 to 100 where 0 is no effect and 100 is complete control) (oat, wild; 125 g ai/ha): 5 | Plant response rating (scale of 0 to 100 where 0 is no effect and 100 is complete control) (oat, wild; 250 g ai/ha): 10 | Plant response rating (scale of 0 to 100 where 0 is no effect and 100 is complete control) (kochia; 31 g ai/ha): 80 | Plant response rating (scale of 0 to 100 where 0 is no effect and 100 is complete control) (kochia; 62 g ai/ha): 90 | Plant response rating (scale of 0 to 100 where 0 is no effect and 100 is complete control) (kochia; 125 g ai/ha): 90 | Plant response rating (scale of 0 to 100 where 0 is no effect and 100 is complete control) (kochia; 250 g ai/ha): 90
